Laboratory results taken from US7517873B2, “Substituted pyrimidodiazepines” (Hoffman-La Roche Inc., priority 2007, dated 2009).

What follows are compounds tested against T1, GST-PLK1 (Homo sapiens, UniProt P53350) (assay: Biochemical Characterization Assay: GST-PLK1 kinase HTRF assay with GST-p53 substrate). Settings: full-length GST-PLK1, GST-p53 and ATP, 37° C. for 35 minutes, HTRF signal.
T1 construct: Full-length, active GST-PLK1 is purified from Sf9 insect cells; made in house; host or cells: Sf9 insect cells
T1 sequence (P53350 whole entry): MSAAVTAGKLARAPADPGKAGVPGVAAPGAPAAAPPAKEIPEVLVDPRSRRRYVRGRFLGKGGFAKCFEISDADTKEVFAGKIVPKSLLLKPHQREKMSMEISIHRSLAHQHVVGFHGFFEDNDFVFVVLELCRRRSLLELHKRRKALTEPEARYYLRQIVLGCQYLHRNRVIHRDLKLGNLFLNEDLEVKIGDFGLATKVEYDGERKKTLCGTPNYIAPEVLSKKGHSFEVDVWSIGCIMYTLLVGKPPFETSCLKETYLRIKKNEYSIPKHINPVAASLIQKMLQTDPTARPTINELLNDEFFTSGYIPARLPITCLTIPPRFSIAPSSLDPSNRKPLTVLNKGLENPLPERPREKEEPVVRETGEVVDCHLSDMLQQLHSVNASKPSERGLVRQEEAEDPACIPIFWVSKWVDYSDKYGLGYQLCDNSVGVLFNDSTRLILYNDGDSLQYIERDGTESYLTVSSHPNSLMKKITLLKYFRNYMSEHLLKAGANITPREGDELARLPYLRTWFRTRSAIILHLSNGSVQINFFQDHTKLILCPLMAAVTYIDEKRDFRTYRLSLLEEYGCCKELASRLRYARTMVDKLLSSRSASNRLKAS
Experimental: Biochemical Characterization Assay
Full-length, active GST-PLK1 is purified from Sf9 insect cells, and full-length GST-p53 is purified from E. coli. Anti-phospho p53 antibody is from Cell Signaling Technology. Europium-conjugated anti-rabbit antibody is from PerkinElmer Life and Analytical Sciences. APC-conjugated anti-GST antibody is from Prozyme.
To assay compounds of the invention, two microliters of test compound (0.6 nM-4 mM) in DMSO or plain DMSO for control wells, 38 microliters of 20 mM HEPES pH 7, 50 mM NaCl, 10 mM MgCl2, 0.5 mM TCEP, 0.1 mM sodium orthovanadate, 0.1 mg/mL BSA, and 0.05% Triton X-100 (Kinase Assay Buffer) are added. […] Six microliters of GST-PLK1 (3 ug/mL) in Kinase Assay Buffer are then added and the solution incubated at 37° C. for 35 minutes. Six microliters of solution containing 43 mM EDTA to stop the reaction and a 1:600 dilution of anti-phospho-p53 antibody in 20 mM HEPES pH 7, 50 mM NaCl, and 0.5 mg/mL BSA (Antibody Binding Buffer) are added and the solution incubated at 37° C. for 30 minutes. […] The HTRF signal is read on an Envision reader from PerkinElmer Life and Analytical Sciences.

Row | SMILES | IC50 [nM]
1 | COc1ccc(NC(=O)c2ccccc2)cc1Nc1ncc2c(n1)N(C1CCCC1)CC(C)C(=O)N2C (racemic) [I-78, (rac)-N-[3-(9-Cyclopentyl-5,7-dimethyl-6-oxo-6,7,8,9-tetrahydro-5H-pyrimido[4,5-b][1,4]diazepin-2-ylamino)-4-methoxy-phenyl]-benzamide] | 500 to 5000
2 | COc1ccc(NC(=O)C2CCN(C(C)=O)CC2)cc1Nc1ncc2c(n1)N(C1CCCC1)CC(C)C(=O)N2C (racemic) [I-80, (rac)-1-Acetyl-piperidine-4-carboxylic acid [3-(9-cyclopentyl-5,7-dimethyl-6-oxo-6,7,8,9-tetrahydro-5H-pyrimido[4,5-b][1,4]diazepin-2-ylamino)-4-methoxy-phenyl]-amide] | 500 to 5000
3 | CC1CN(C2CCCC2)c2nc(Nc3cccc(C(=O)Nc4cccnc4)c3)ncc2N(C)C1=O (racemic) [I-72, (rac)-3-(9-Cyclopentyl-5,7-dimethyl-6-oxo-6,7,8,9-tetrahydro-5H-pyrimido[4,5-b][1,4]diazepin-2-ylamino)-N-pyridin-3-yl-benzamide] | < 500
4 | CC1CN(C2CCCC2)c2nc(Nc3ccc(C(=O)Nc4cccnc4)c(Cl)c3)ncc2N(C)C1=O (racemic) [I-82, (rac)-2-Chloro-4-(9-cyclopentyl-5,7-dimethyl-6-oxo-6,7,8,9-tetrahydro-5H-pyrimido[4,5-b][1,4]diazepin-2-ylamino)-N-pyridin-3-yl-benzamide] | > 5000
5 | COc1cc(C(=O)NC2CCN(C)CC2)ccc1N(C)c1ncc2c(n1)N(C1CCCCC1)CC(C)C(=O)N2C (racemic) [I-66, (rac)-4-[(9-Cyclohexyl-5,7-dimethyl-6-oxo-6,7,8,9-tetrahydro-5H-pyrimido[4,5-b][1,4]diazepin-2-yl)-methyl-amino]-3-methoxy-N-(1-methyl-piperidin-4-yl)-benzamide] | > 5000
6 | CC1CN(C2CCCC2)c2nc(Nc3ccc(C(=O)NC4CCOCC4)c(Cl)c3)ncc2N(C)C1=O (racemic) [I-88, (rac)-2-Chloro-4-(9-cyclopentyl-5,7-dimethyl-6-oxo-6,7,8,9-tetrahydro-5H-pyrimido[4,5-b][1,4]diazepin-2-ylamino)-N-(tetrahydro-pyran-4-yl)-benzamide] | 500 to 5000
7 | CN1CCC(NC(=O)c2ccc(Nc3ncc4c(n3)N(C3CCCC3)CC3(CC3)C(=O)N4C)cc2)CC1 [I-62, 4-[(9-Cyclopentyl-6,7,8,9-tetrahydro-5-methyl-6-oxospiro[5H-pyrimido[4,5-b][1,4]diazepine-7,1′-cyclopropan]-2-yl)amino]-N-(1-methyl-4-piperidinyl)benzamide] | < 500
8 | CC1CN(C2CCCCC2)c2nc(Nc3ccc4oc(-c5ccncc5)nc4c3)ncc2N(C)C1=O (racemic) [I-26, (rac)-9-Cyclohexyl-5,7-dimethyl-2-(2-pyridin-4-yl-benzooxazol-5-ylamino)-5,7,8,9-tetrahydro-pyrimido[4,5-b][1,4]diazepin-6-one] | > 5000
9 | CC1CN(C2CCCC2)c2nc(Nc3ccc4oc(-c5cccnc5)nc4c3)ncc2N(C)C1=O (racemic) [I-77, (rac)-9-Cyclopentyl-5,7-dimethyl-2-(2-pyridin-3-yl-benzooxazol-5-ylamino)-5,7,8,9-tetrahydro-pyrimido[4,5-b][1,4]diazepin-6-one] | > 5000
10 | CC1CN(C2CCCC2)c2nc(Nc3ccc(C(=O)NCCN(C)C)c(Cl)c3)ncc2N(C)C1=O (racemic) [I-87, (rac)-2-Chloro-4-(9-cyclopentyl-5,7-dimethyl-6-oxo-6,7,8,9-tetrahydro-5H-pyrimido[4,5-b][1,4]diazepin-2-ylamino)-N-(2-dimethylamino-ethyl)-benzamide] | 500 to 5000

Next, values leading:

Row | IC50 [nM] | SMILES
11 | 500 to 5000 | COc1cc(C(=O)NC2CCN(C)CC2)ccc1Nc1ncc2c(n1)N(C1CCCC1)CC(CCO)C(=O)N2C (racemic) [I-49, (rac)-4-[9-Cyclopentyl-7-(2-hydroxy-ethyl)-5-methyl-6-oxo-6,7,8,9-tetrahydro-5H-pyrimido[4,5-b][1,4]diazepin-2-ylamino]-3-methoxy-N-(1-methyl-piperidin-4-yl)-benzamide]
12 | 500 to 5000 | COCCCNC(=O)c1cccc(Nc2ncc3c(n2)N(C2CCCC2)CC(C)C(=O)N3C)c1 (racemic) [I-90, (rac)-3-(9-Cyclopentyl-5,7-dimethyl-6-oxo-6,7,8,9-tetrahydro-5H-pyrimido[4,5-b][1,4]diazepin-2-ylamino)-N-(3-methoxy-propyl)-benzamide]
13 | < 500 | COc1cc(C(=O)Nc2ccncc2)ccc1Nc1ncc2c(n1)N(C1CCC1)CCC(=O)N2C [I-37, 4-(9-Cyclobutyl-5-methyl-6-oxo-6,7,8,9-tetrahydro-5H-pyrimido[4,5-b][1,4]diazepin-2-ylamino)-3-methoxy-N-pyridin-4-yl-benzamide]
14 | > 5000 | COc1cc(C(=O)NC2CCOCC2)ccc1Nc1ncc2c(n1)N(C1CCCCC1)CCC(=O)N2 [I-33, 4-(9-Cyclohexyl-6-oxo-6,7,8,9-tetrahydro-5H-pyrimido[4,5-b][1,4]diazepin-2-ylamino)-3-methoxy-N-(tetrahydro-pyran-4-yl)-benzamide]
15 | < 500 | COc1cc(C(=O)NC2CCN(C)CC2)ccc1Nc1ncc2c(n1)N1CCC[C@@H]1CC(=O)N2C [I-102, (3R)-3-methoxy-4-(6-methyl-5-oxo-2,3,3a,4,5,6-hexahydro-1H-6,8,10,10b-tetraaza-benzo[e]azulen-9-ylamino)-N-(1-methyl-piperidin-4-yl)-benzamide]
16 | > 5000 | COc1cc(C(=O)N2CCCCC2)ccc1Nc1ncc2c(n1)N(C1CCCCC1)CCC(=O)N2 [I-32, 9-Cyclohexyl-2-[2-methoxy-4-(piperidine-1-carbonyl)-phenylamino]-5,7,8,9-tetrahydro-pyrimido[4,5-b][1,4]diazepin-6-one]
17 | > 5000 | CCCNC(=O)c1ccc(Nc2ncc3c(n2)N(C2CCCCC2)CCC(=O)N3)c(OC)c1 [I-30, 4-(9-Cyclohexyl-6-oxo-6,7,8,9-tetrahydro-5H-pyrimido[4,5-b][1,4]diazepin-2-ylamino)-3-methoxy-N-propyl-benzamide]
18 | < 500 | COc1cc(C(=O)NCCCn2ccnc2)ccc1Nc1ncc2c(n1)N(C1CCC1)CCC(=O)N2C [I-36, 4-(9-Cyclobutyl-5-methyl-6-oxo-6,7,8,9-tetrahydro-5H-pyrimido[4,5-b][1,4]diazepin-2-ylamino)-N-(3-imidazol-1-yl-propyl)-3-methoxy-benzamide]
19 | > 5000 | COc1cc(C(=O)Nc2ccccc2)ccc1Nc1ncc2c(n1)N(C1CCCCC1)CCC(=O)N2 [I-28, 4-(9-Cyclohexyl-6-oxo-6,7,8,9-tetrahydro-5H-pyrimido[4,5-b][1,4]diazepin-2-ylamino)-3-methoxy-N-phenyl-benzamide]
20 | < 500 | COc1cc(C(=O)NC2CCN(C)CC2)ccc1Nc1ncc2c(n1)N(C1CCCC1)C[C@@H](C)C(=O)N2C [I-2a, 7R-4-(9-Cyclopentyl-5,7-dimethyl-6-oxo-6,7,8,9-tetrahydro-5H-pyrimido[4,5-b][1,4]diazepin-2-ylamino)-3-methoxy-N-(1-methyl-piperidin-4-yl)-benzamide]
21 | > 5000 | COc1cc(C(=O)NC2CCN(C)CC2)ccc1Nc1ncc2c(n1)N1CCCC(C1)C(=O)N2C (racemic) [I-67, (rac)-3-Methoxy-4-(8-methyl-9-oxo-1,3,5,8-tetraaza-tricyclo[8.3.1.0*2,7*]tetradeca-2,4,6-trien-4-ylamino)-N-(1-methyl-piperidin-4-yl)-benzamide]
22 | 500 to 5000 | COc1cc(C(=O)NC2CCN(C)CC2)ccc1Nc1ncc2c(n1)N(C1CCCC1)CCC(=O)N2 [I-21, 4-(9-Cyclopentyl-6-oxo-6,7,8,9-tetrahydro-5H-pyrimido[4,5-b][1,4]diazepin-2-ylamino)-3-methoxy-N-(1-methyl-piperidin-4-yl)-benzamide]
23 | < 500 | Cc1cc(C(=O)NC2CCN(C)CC2)ccc1Nc1ncc2c(n1)N(C1CCCC1)CC(C)C(=O)N2C (racemic) [I-8, (rac)-4-(9-Cyclopentyl-5,7-dimethyl-6-oxo-6,7,8,9-tetrahydro-5H-pyrimido[4,5-b][1,4]diazepin-2-ylamino)-3-methyl-N-(1-methyl-piperidin-4-yl)-benzamide]
24 | < 500 | COc1cc(C(=O)NC2CCN(C)CC2)ccc1Nc1ncc2c(n1)N(C1CCCC1)CC(C)(C)C(=O)N2C [I-39, 4-(9-Cyclopentyl-5,7,7-trimethyl-6-oxo-6,7,8,9-tetrahydro-5H-pyrimido[4,5-b][1,4]diazepin-2-ylamino)-3-methoxy-N-(1-methyl-piperidin-4-yl)-benzamide]
25 | < 500 | COc1cc(C(=O)NC2CCN(C)CC2)ccc1Nc1ncc2c(n1)N(C1CCC(C)C1)CCC(=O)N2C (racemic) [I-58, (rac)-3-Methoxy-4-[5-methyl-9-(3-methyl-cyclopentyl)-6-oxo-6,7,8,9-tetrahydro-5H-pyrimido[4,5-b][1,4]diazepin-2-ylamino]-N-(1-methyl-piperidin-4-yl)-benzamide]
26 | < 500 | COc1cc(C(=O)NC2CCN(C)CC2)ccc1Nc1ncc2c(n1)N(C1CC1)C(C)C(C)C(=O)N2C (racemic) [I-46, (rac)-4-(9-Cyclopropyl-5,7,8-trimethyl-6-oxo-6,7,8,9-tetrahydro-5H-pyrimido[4,5-b][1,4]diazepin-2-ylamino)-3-methoxy-N-(1-methyl-piperidin-4-yl)-benzamide]
